How the values were obtained:
[1] = Test of hydrogen sulfide detection over time (^64CuS formation, radio-TLC); format: physicochemical; set-up: unit not given here; details: 100 μM NaHS, 37° C.
[2] = Hydrogen sulfide selectivity test: decomplexation by Cys; format: physicochemical; details: 100 μM or L-Cys (1 mM), 37° C. for 15 minutes
[3] = Hydrogen sulfide selectivity test: decomplexation by Hcys; format: physicochemical; details: 100 μM or L-Hcys (10 mM), 37° C. for 15 minutes
[4] = Hydrogen sulfide selectivity test: decomplexation by GSH; format: physicochemical; details: 100 μM or GSH (10 mM), 37° C. for 15 minutes
[5] = Hydrogen sulfide selectivity test: decomplexation by DTT; format: physicochemical; details: DL-dithiothretitol (DTT, 100 μM); 37° C. for 15 minutes
[6] = Hydrogen sulfide selectivity test: decomplexation by L-AsA; format: physicochemical; details: L-ascorbic acid; 100 μM or (L-AsA, 10 mM); 37° C. for 15 minutes
[7] = Hydrogen sulfide selectivity test: decomplexation by ME; format: physicochemical; details: 2-mercaptoethanol; 100 μM or (2-ME, 10 mM); 37° C. for 15 minutes
Outline: (§1)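 About 45 μCi-55 μCi of ^64Cu-labeled complex in water was mixed with an equal volume of competitor solution (Na2S2O5 1 mM, H2O2 […], NaClO4 100 μM, 2-ME 10 mM) and stirred 15 min at 37° C. ^64CuS formation was quantified by radio-TLC scanning.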

[8] = Hydrogen sulfide selectivity test: decomplexation by NaCl; format: physicochemical; details: 100 μM or NaCl (10 mm), 37° C. for 15 minutes
[9] = Hydrogen sulfide selectivity test: decomplexation by Kl; format: physicochemical; details: 100 μM or KI (1 mM), 37° C. for 15 minutes
[10] = Hydrogen sulfide selectivity test: decomplexation by Na2S2O3; format: physicochemical; details: 100 μM or (1 mM), 37° C. for 15 minutes
[11] = Hydrogen sulfide selectivity test: decomplexation by Na2S2O5; format: physicochemical; details: 100 μM or (1 mM), 37° C. for 15 minutes
Outline: as §1

[12] = Hydrogen sulfide selectivity test: decomplexation by NaOAc; format: physicochemical; details: 100 μM or (1 mM), 37° C. for 15 minutes
[13] = Hydrogen sulfide selectivity test: decomplexation by H2O2; format: physicochemical; details: H2O2 (100 µM); 37° C. for 15 minutes
Outline: as §1

[14] = Hydrogen sulfide selectivity test: decomplexation by NaClO4; format: physicochemical; details: NaClO4 (100 μM); 37° C. for 15 minutes
Outline: as §1

[15] = Hydrogen sulfide selectivity test: decomplexation by NaHCO3; format: physicochemical; details: NaHCO3 (100 μM); 37° C. for 15 minutes
[16] = Hydrogen sulfide selectivity test: decomplexation by NaNO2; format: physicochemical; details: NaNO2 (100 µM); 37° C. for 15 minutes
[17] = Hydrogen sulfide selectivity test: decomplexation by NaN3; format: physicochemical; details: NaN3 (100 μM); 37° C. for 15 minutes
[18] = Hydrogen sulfide selectivity test: decomplexation by ATB 337; format: physicochemical; details: ATB 337 (100 μM); 37° C. for 15 minutes
[19] = Hydrogen sulfide selectivity test: decomplexation by DAT (diallyl trisulphide); format: physicochemical; details: DAT = diallyl trisulphide (100 μM); 37° C. for 15 minutes
[20] = test system: Myocardial infarction model; assay: Imaging study in myocardial infarction model (PET); format: in vivo, Sprague-Dawley rats
Description: (2) Myocardial Infarction Model
A myocardial infarction model was established by using Sprague-Dawley rats (12-week-old or older, about 250 g). 2 days later after induction of myocardial infarction by occlusion of the coronary arteries in the heart, the rats were used in imaging tests. It is a known fact that myocardial infarction sites show high concentrations of hydrogen sulfide.
It is known that myocardial infarction sites show high concentrations of hydrogen sulfide. Thus, after induction of myocardial infarction by coronary artery occlusion in rats, 50 μCi-900 μCi of the ^64Cu-labeled complex compound was injected via the tails of the rats, and uptake in the myocardial infarction site was examined over time by PET imaging.
36 hours after establishment of the myocardial infarction model, 730 μCi of the radioisotope-labeled complex compound of the present disclosure was injected and nuclear medicine imaging was performed. 2 days later, […] of FDG was injected into the same rat, and then FDG-PET images were obtained. Results are shown in FIGS. 15 to 17 (in the nuclear medicine imaging, the upper image represents a transverse image, and the lower image represents a coronal image).

[21] = test system: Pancreatitis model; assay: Imaging study in pancreatitis model; format: in vivo, Balb/c mouse; details: optical images; PET images after excision of tissues
Description: Caerulein (50 μg/kg) was intraperitoneally injected into Balb/c mouse seven times at hourly intervals to prepare a pancreatitis model.
Optical images were obtained after injecting each of the ^64Cu-labeled complex compounds of Example 1 and Example 20 into the prepared rat models having pancreatitis, and PET images were obtained after excision of tissues thereof.

## C1C[N]2CC[N]3CC[N]4CC[N]1[64Cu]243 [Example 1, ^64Cu-labeled cyclen]
[1]; 10 sec
  Formation of copper sulfide (^64CuS) over time: 13
[1]; 30 sec
  Formation of copper sulfide (^64CuS) over time: 17
[1]; 60 sec
  Formation of copper sulfide (^64CuS) over time: 21
[1]; 5 min
  Formation of copper sulfide (^64CuS) over time: 100
[1]; 10 min
  Formation of copper sulfide (^64CuS) over time: 100
[1]; 15 min
  Formation of copper sulfide (^64CuS) over time: 100
[2]
  Decomplexation [%]: 0.5 ± 0.1%
[3]
  Decomplexation [%]: 1.4 ± 0.4%
[4]
  Decomplexation [%]: 0.7 ± 0.0%
[5]
  Decomplexation [%]: 0.6 ± 0.4%
[6]
  Decomplexation [%]: 0.5 ± 0.1%
[7]
  Decomplexation [%]: 0.5 ± 0.1%
[8]
  Decomplexation [%]: 0.2 ± 0.0%
[9]
  Decomplexation [%]: 0.7 ± 0.2%
[10]
  Decomplexation [%]: 0.4 ± 0.0%
[11]
  Decomplexation [%]: 0.5 ± 0.2%
[12]
  Decomplexation [%]: 0.6 ± 0.1%
[13]
  Decomplexation [%]: 0.5 ± 0.4%
[14]
  Decomplexation [%]: 0.6 ± 0.2%
[15]
  Decomplexation [%]: 0.6 ± 0.3%
[16]
  Decomplexation [%]: 0.6 ± 0.0%
[17]
  Decomplexation [%]: 0.3 ± 0.2%
[18]
  Decomplexation [%]: 0.7 ± 0.4%
[19]
  Decomplexation [%]: 0.4 ± 0.3%
[20]; image taken at 24 hours after injection
  uptake in the myocardial infarction site: high uptake was detected in the myocardial infarction site
[21]
  uptake in the pancreas: high uptakes

## C1C[N]2CC[N]3CC[N]1[64Cu]23 [Example 20, ^64Cu-labeled TACN]
[1]; 10 sec
  Formation of copper sulfide (^64CuS) over time: 0
[1]; 30 sec
  Formation of copper sulfide (^64CuS) over time: 0
[1]; 60 sec
  Formation of copper sulfide (^64CuS) over time: 5
[1]; 5 min
  Formation of copper sulfide (^64CuS) over time: 13
[1]; 10 min
  Formation of copper sulfide (^64CuS) over time: 60
[1]; 15 min
  Formation of copper sulfide (^64CuS) over time: 60
[2]
  Decomplexation [%]: 0.8 ± 0.3%
[3]
  Decomplexation [%]: 1.1 ± 0.5%
[4]
  Decomplexation [%]: 2.6 ± 0.0%
[5]
  Decomplexation [%]: 0.9 ± 0.1%
[6]
  Decomplexation [%]: 0.8 ± 0.5%
[7]
  Decomplexation [%]: 0.4 ± 0.0%
[8]
  Decomplexation [%]: 0.5 ± 0.0%
[9]
  Decomplexation [%]: 0.4 ± 0.2%
[10]
  Decomplexation [%]: 0.5 ± 0.0%
[11]
  Decomplexation [%]: 0.5 ± 0.2%
[12]
  Decomplexation [%]: 0.3 ± 0.0%
[13]
  Decomplexation [%]: 0.8 ± 0.3%
[14]
  Decomplexation [%]: 0.4 ± 0.1%
[15]
  Decomplexation [%]: 0.6 ± 0.4%
[16]
  Decomplexation [%]: 0.4 ± 0.0%
[17]
  Decomplexation [%]: 0.4 ± 0.0%
[18]
  Decomplexation [%]: 0.7 ± 0.2%
[19]
  Decomplexation [%]: 0.7 ± 0.6%
[20]; PET imaging after injection
  uptake / visualisation of the myocardial infarction site: the myocardial infarction site was clearly observed
[21]
  uptake in the pancreas: high uptakes
